Laboratory results as given in patent publication US11046649B2, “Compounds useful as inhibitors of indoleamine 2,3-dioxygenase and/or tryptophan dioxygenase” (Board of Regents, The University of Texas System, priority 2018, dated 2021).

Molecular target: T1, IDO1 (Homo sapiens, UniProt P14902)
T1 construct: endogenous in cells; host or cells: HeLa cells (ATCC), IDO1 induced with 10 ng/mL IFNgamma
Assay: IDO1 cell-based assay
Settings: HeLa cells, 10 ng/mL IFNgamma, 24 hours with test compound; N-Formyl Kynurenine and L-tryptophan quantified by RFMS

T1 sequence (P14902 whole entry): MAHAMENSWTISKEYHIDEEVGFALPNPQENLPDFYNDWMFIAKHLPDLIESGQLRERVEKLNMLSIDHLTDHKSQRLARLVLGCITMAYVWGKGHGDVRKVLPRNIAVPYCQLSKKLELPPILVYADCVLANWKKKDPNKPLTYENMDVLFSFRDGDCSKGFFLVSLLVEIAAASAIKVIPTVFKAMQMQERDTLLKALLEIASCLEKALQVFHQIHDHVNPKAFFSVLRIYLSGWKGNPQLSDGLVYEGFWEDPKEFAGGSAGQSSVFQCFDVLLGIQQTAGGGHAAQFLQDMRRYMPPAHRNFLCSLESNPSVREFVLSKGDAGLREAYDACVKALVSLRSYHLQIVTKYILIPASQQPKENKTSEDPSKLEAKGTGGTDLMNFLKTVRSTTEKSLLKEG

| Compound | IC50 |
| --- | --- |
| CC(C(=O)Nc1ccc(C2CC2)nc1)[C@H]1[C@@H]2C[C@@H](Oc3ccnc4ccc(F)cc34)C[C@@H]21 (stereo partly drawn) [Example 63, N-(6-cyclopropylpyridin-3-yl)-2-((1R,3s,5S,6r)-3-((6-fluoroquinolin-4-yl)oxy)-bicyclo[3.1.0]hexan-6-yl)propanamide] | 1.4 nM |
| CCC(C(=O)Nc1ccc(C#N)nn1)[C@H]1[C@@H]2C[C@@H](Oc3ccnc4ccc(F)cc34)C[C@@H]21 (stereo partly drawn) [Example 149, N-(6-cyanopyridazin-3-yl)-2-((1R,3s,5S,6r)-3-((6-fluoroquinolin-4-yl)oxy)-bicyclo[3.1.0]hexan-6-yl)butanamide] | 5.49 nM |
| CC(C(=O)Nc1cnn(C)c1)[C@H]1[C@@H]2C[C@@H](n3cnc4cc(F)c(F)cc43)C[C@@H]21 (stereo partly drawn) [Example 31, 2-((1R,3s,5S,6r)-3-(5,6-difluoro-1H-benzo[d]-imidazol-1-yl)bicyclo-[3.1.0]hexan-6-yl)-N-(1-methyl-1H-pyrazol-4-yl)-propanamide] | 141 nM |
| CC(C(=O)NC12CC(c3ccc(F)cc3)(C1)C2)[C@H]1[C@@H]2C[C@@H](Oc3ccnc4ccc(F)cc34)C[C@@H]21 (stereo partly drawn) [Example 100, N-(3-(4-fluorophenyl)-bicyclo[1.1.1]pentan-1-yl)-2-((1R,3s,5S,6r)-3-((6-fluoroquinolin-4-yl)-oxy)bicyclo[3.1.0]hexan-6-yl)propanamide] | 45.3 nM |
| Cc1nnc(-c2ccc(NC(=O)[C@@H](C)[C@H]3[C@@H]4C[C@@H](n5cnc6cc(F)c(F)cc65)C[C@@H]43)cc2)s1 [Example 70, (S)-2-((1R,3R,5S,6r)-3-(5,6-difluoro-1H-benzo[d]-imidazol-1-yl)bicyclo-[3.1.0]hexan-6-yl)-N-(4-(5-methyl-1,3,4-thiadiazol-2-yl)phenyl)propanamide] | 238 nM |
| CCC(c1nc2cc(C(F)(F)F)ccc2[nH]1)[C@H]1[C@@H]2C[C@@H](Oc3ccnc4ccc(F)cc34)C[C@@H]21 (some centres unmarked) [Example 12] | 0.85 nM |
| CC(C(=O)Nc1ccc(Cl)cc1)[C@H]1[C@@H]2C[C@@H](n3cnc4ccc(C#N)cc43)C[C@@H]21 (stereo partly drawn) [Example 16, N-(4-chlorophenyl)-2-((1R,3s,5S,6r)-3-(6-cyano-1H-benzo[d]imidazol-1-yl)-bicyclo[3.1.0]hexan-6-yl)-propanamide] | 4.4 nM |
| CC(C(=O)Nc1ccc(F)cn1)[C@H]1[C@@H]2C[C@@H](n3cnc4cc(F)c(F)cc43)C[C@@H]21 (stereo partly drawn) [Example 4, 2-((1R,3s,5S,6r)-3-(5,6-difluoro-1H-benzo[d]imidazol-1-yl)bicyclo[3.1.0]hexan-6-yl)-N-(5-fluoropyridin-2-yl)propanamide] | 5.1 nM |
| CC(c1nc2cc(C(F)(F)F)ccc2[nH]1)[C@H]1[C@@H]2C[C@@H](Oc3ccnc4ccc(F)cc34)C[C@@H]21 (stereo partly drawn) [Example 137, 6-fluoro-4-(((1R,3s,5S,6r)-6-(1-(5-(trifluoromethyl)-1H-benzo[d]imidazol-2-yl)-ethyl)bicyclo[3.1.0]hexan-3-yl)oxy)quinoline] | 1.2 nM |
| Cc1nnc(-c2ccc(NC(=O)[C@@H](C)[C@H]3[C@@H]4C[C@@H](n5cnc6cc(F)c(F)cc65)C[C@@H]43)cc2)o1 [Example 81, (S)-2-((1R,3R,5S,6r)-3-(5,6-difluoro-1H-benzo[d]-imidazol-1-yl)-bicyclo[3.1.0]hexan-6-yl)-N-(4-(5-methyl-1,3,4-oxadiazol-2-yl)phenyl)-propanamide] | 710 nM |
| CC(C(=O)Nc1nc2ccccc2[nH]1)[C@H]1[C@@H]2C[C@@H](Oc3ccnc4ccc(F)cc34)C[C@@H]21 (stereo partly drawn) [Example 107, N-(1H-benzo[d]imidazol-2-yl)-2-((1R,3s,5S,6r)-3-((6-fluoroquinolin-4-yl)oxy)-bicyclo[3.1.0]hexan-6-yl)propanamide] | 9.2 nM |
| O=C(N[C@H](C1CC1)[C@H]1[C@@H]2C[C@@H](Oc3ccnc4ccc(F)cc34)C[C@@H]21)c1ccc(Cl)cc1 [Example 38, 4-chloro-N-((R)-cyclo-propyl((1R,3s,5S,6r)-3-((6-fluoroquinolin-4-yl)oxy)-bicyclo[3.1.0]hexan-6-yl)-methyl)benzamide] | 1.37 nM |
| C[C@H](C(=O)Nc1ccc(-c2cnc[nH]2)cc1)[C@H]1[C@@H]2C[C@@H](n3cnc4cc(F)c(F)cc43)C[C@@H]21 [Example 90, (S)-N-(4-(1H-imidazol-5-yl)phenyl)-2-((1R,3R,5S,6r)-3-(5,6-difluoro-1H-bcnzo[d]-imidazol-1-yl)bicyclo-[3.1.0]hexan-6-yl)-propanamide] | 550 nM |
| CC(C(=O)Nc1ccc(C#N)nn1)[C@H]1[C@@H]2C[C@@H](Oc3ccnc4ccc(F)cc34)C[C@@H]21 (stereo partly drawn) [Example 76, N-(6-cyanopyridazin-3-yl)-2-((1R,3s,5S,6r)-3-((6-fluoroquinolin-4-yl)oxy)-bicyclo[3.1.0]hexan-6-yl)-propanamide] | 4.6 nM |
| CC(C(=O)NC12CC(NC(=O)CO)(C1)C2)[C@H]1[C@@H]2C[C@@H](Oc3ccnc4ccc(F)cc34)C[C@@H]21 (stereo partly drawn) [Example 129, 2-((1R,3s,5S,6r)-3-((6-fluoroquinolin-4-yl)oxy)-bicyclo[3.1.0]hexan-6-yl)-N-(3-(2-hydroxy-acetamido)bicyclo-[1.1.1]pentan-1-yl)-propanamide] | 597 nM |
| C[C@H](C(=O)Nc1ccc(-c2cnn(CC(=O)O)c2)cc1)[C@H]1[C@@H]2C[C@@H](n3cnc4cc(F)c(F)cc43)C[C@@H]21 [Example 69, 2-(4-(4-((S)-2-((1R,3R,5S,6r)-3-(5,6-difluoro-1H-benzo[d]-imidazol-1-yl)bicyclo-[3.1.0]hexan-6-yl)-propanamido)phenyl)-1H-pyrazol-1-yl)acetic acid] | 5550 nM |
| CC(C(=O)Nc1cc2ccccn2n1)[C@H]1[C@@H]2C[C@@H](Oc3ccnc4ccc(F)cc34)C[C@@H]21 (stereo partly drawn) [Example 87, 2-((1R,3s,5S,6r)-3-((6-fluoroquinolin-4-yl)oxy)-bicyclo[3.1.0]hexan-6-yl)-N-(pyrazolo[1,5-a]pyridin-2-yl)propanamide] | 3 nM |
| N-(5-(1H-1,2,4-triazol-1- yl)pyridin-2-yl)-2- ((1R,3s,5S,6r)-3-((6- fluoroquinolin-4-yl)- oxy)bicyclo[3.1.0]hexan-6- yl)propanamide [Example 96] | 7.1 nM |
| CC(C(=O)Nc1cnc2ccccn12)[C@H]1[C@@H]2C[C@@H](n3cnc4cc(F)c(F)cc43)C[C@@H]21 (stereo partly drawn) [Example 50, 2-((1R,3s,5S,6r)-3-(5,6-difluoro-1H-benzo[d]-imidazol-1-yl)bicyclo-[3.1.0]hexan-6-yl)-N-(imidazo[1,2-a]pyridin-3-yl)propanamide] | 495 nM |
| CC(C(=O)NC12CC(CO)(C1)C2)[C@H]1[C@@H]2C[C@@H](Oc3ccnc4ccc(F)cc34)C[C@@H]21 (stereo partly drawn) [Example 7, 2-((1R,3s,5S,6r)-3-((6-fluoroquinolin-4-yl)oxy)bicyclo[3.1.0]hexan-6-yl)-N-(3-(hydroxy-methyl)bicyclo[1.1.1]pentan-1-yl)propanamide] | 468 nM |
| CC(C)n1cc(-c2ccc(NC(=O)[C@@H](C)[C@H]3[C@@H]4C[C@@H](n5cnc6cc(F)c(F)cc65)C[C@@H]43)cc2)cn1 [Example 91, (S)-2-((1R,3R,5S,6r)-3-(5,6-difluoro-1H-benzo[d]-imidazol-1-yl)bicyclo-[3.1.0]hexan-6-yl)-N-(4-(1-isopropyl-1H-pyrazol-4-yl)phenyl)propanamide] | 504 nM |
| CC(C(=O)Nc1nc[nH]n1)[C@H]1[C@@H]2C[C@@H](Oc3ccnc4ccc(F)cc34)C[C@@H]21 (stereo partly drawn) [Example 77, 2-((1R,3s,5S,6r)-3-((6-fluoroquinolin-4-yl)oxy)-bicyclo[3.1.0]hexan-6-yl)-N-(1H-1,2,4-triazol-3-yl)-propanamide] | 111 nM |
| CC(C(=O)NC1CCC(F)(F)CC1)[C@H]1[C@@H]2C[C@@H](n3cnc4cc(F)c(F)cc43)C[C@@H]21 (stereo partly drawn) [Example 43, 2-((1R,3s,5S,6r)-3-(5,6-difluoro-1H-benzo[d]-imidazol-1-yl)bicyclo-[3.1.0]hexan-6-yl)-N-(4,4-difluorocyclohexyl)-propanamide] | 192 nM |
| CCC(C(=O)Nc1cnc(C)cn1)[C@H]1[C@@H]2C[C@@H](Oc3ccnc4ccc(F)cc34)C[C@@H]21 (stereo partly drawn) [Example 120, 2-((1R,3s,5S,6r)-3-((6-fluoroquinolin-4-yl)oxy)-bicyclo[3.1.0]hexan-6-yl)-N-(5-methylpyrazin-2-yl)-butanamide] | 1.43 nM |
| CC(C(=O)Nc1ccc(C(F)(F)F)nc1)[C@H]1[C@@H]2C[C@@H](Oc3ccnc4ccc(F)cc34)C[C@@H]21 (some centres unmarked) [Example 60] | 4.7 nM |
| C[C@H](C(=O)Nc1ccc(-c2cnn(C)c2)cc1)[C@H]1[C@@H]2C[C@@H](n3cnc4cc(F)c(F)cc43)C[C@@H]21 [Example 65, (S)-2-((1R,3R,5S,6r)-3-(5,6-difluoro-1H-benzo[d]-imidazol-1-yl)-bicyclo[3.1.0]hexan-6-yl)-N-(4-(1-methyl-1H-pyrazol-4-yl)phenyl)-propanamide] | 170 nM |
| CC(C(=O)NC12CC(C(C)O)(C1)C2)[C@H]1[C@@H]2C[C@@H](n3cnc4cc(F)c(F)cc43)C[C@@H]21 (stereo partly drawn) [Example 13, 2-((1R,3s,5S,6r)-3-(5,6-difluoro-1H-benzo[d]imidazol-1-yl)bicyclo[3.1.0]hexan-6-yl)-N-(3-(1-hydroxyethyl)bicyclo[1.1.1]pentan-1-yl)propanamide] | 626 nM |
| CC(C(=O)NC12CC(C#N)(C1)C2)[C@H]1[C@@H]2C[C@@H](n3cnc4cc(F)c(F)cc43)C[C@@H]21 (stereo partly drawn) [Example 23, N-(3-cyanobicyclo-[1.1.1]pentan-1-yl)-2-((1R,3s,5S,6r)-3-(5,6-difluoro-1H-benzo[d]-imidazol-1-yl)bicyclo-[3.1.0]hexan-6-yl)-propanamide] | 1650 nM |
| N#Cc1ccc(NC(=O)C(C2CC2)[C@H]2[C@@H]3C[C@@H](Oc4ccnc5ccc(F)cc45)C[C@@H]32)nn1 (stereo partly drawn) [Example 124, N-(6-cyanopyridazin-3-yl)-2-cyclopropyl-2-((1R,3s,5S,6r)-3-((6-fluoroquinolin-4-yl)oxy)-bicyclo[3.1.0]hexan-6-yl)acetamide] | 8.41 nM |
